According to the OligoGym collection:
Where “and” joins values, the source holds several entries; their conditions need not be identical. Identical values can stand only once. After the bases stand the sugars from the 5' end (letter, count) and the backbone: PS all phosphorothioate, else s phosphorothioate and o phosphodiester by linkage. HELM strings list units from the 5' end as sugar, base in round brackets, then linkage (d deoxyribose, r ribose, m 2'-O-methyl, p phosphodiester). Methylation of C is not given here. [moe] = 2'-O-(2-methoxyethyl) (MOE); [cEt] = constrained ethyl (cEt); [sp] = phosphorothioate linkage; e = 2'-O-(2-methoxyethyl) (MOE); k = constrained ethyl (cEt); d = 2'-deoxy (DNA)

Tests used:
HBV = conditions: ASO
IRF5 = conditions: ASO

| Substance | target mRNA inhibition (IRF5; KARPAS-229, 4 µM) | further results |
| --- | --- | --- |
| RNA1{[moe](A)[sp].[moe](G)[sp].[moe](G)[sp].[moe](T)[sp].d(G)[sp].d(A)[sp].d(A)[sp].d(G)[sp].d(C)[sp].d(G)[sp].d(A)[sp].d(A)[sp].d(G)[sp].[moe](T)[sp].[moe](G)[sp].[moe](C)}$$$$V2.0 | – | target mRNA inhibition (HBV; HepG2, 0.07 µM): 3% and 19% |
| RNA1{[moe](A)[sp].[moe](C)[sp].[moe](T)[sp].[moe](G)[sp].[moe](G)[sp].[moe](A)[sp].d(G)[sp].d(C)[sp].d(C)[sp].d(A)[sp].d(C)[sp].d(C)[sp].d(A)[sp].d(G)[sp].d(C)[sp].[moe](A)[sp].[moe](G)}$$$$V2.0 | – | target mRNA inhibition (HBV; HepG2, 0.07 µM): 66% and 46% |
| RNA1{[moe](C)[sp].[moe](G)[sp].[moe](C)[sp].d(A)[sp].d(G)[sp].d(T)[sp].d(A)[sp].d(T)[sp].d(G)[sp].d(G)[sp].d(A)[sp].d(T)[sp].d(C)[sp].[cEt](G)[sp].[cEt](G)[sp].[cEt](C)}$$$$V2.0 | – | target mRNA inhibition (HBV; HepG2, 0.0092593 µM): 0%; target mRNA inhibition (HBV; HepG2, 0.0277778 µM): 50%; target mRNA inhibition (HBV; HepG2, 0.07 µM): 85% and 84%; target mRNA inhibition (HBV; HepG2, 0.0833333 µM): 74%; target mRNA inhibition (HBV; HepG2, 0.25 µM): 81% |
| RNA1{[moe](C)[sp].[moe](G)[sp].[moe](T)[sp].[moe](G)[sp].[moe](C)[sp].d(A)[sp].d(G)[sp].d(A)[sp].d(G)[sp].d(G)[sp].d(T)[sp].d(G)[sp].d(A)[sp].d(A)[sp].[moe](G)[sp].[moe](C)}$$$$V2.0 | – | target mRNA inhibition (HBV; HepG2, 0.07 µM): 59% and 51% |
| RNA1{[moe](A)[sp].[moe](A)[sp].[moe](T)[sp].d(T)[sp].d(T)[sp].d(A)[sp].d(T)[sp].d(G)[sp].d(C)[sp].d(C)[sp].d(T)[sp].d(A)[sp].[moe](C)[sp].[moe](A)[sp].[moe](G)[sp].[moe](C)}$$$$V2.0 | – | target mRNA inhibition (HBV; HepG2, 0.07 µM): 52% and 49% |
| RNA1{[moe](G)[sp].[cEt](A)[sp].d(A)[sp].d(C)[sp].d(A)[sp].d(A)[sp].d(A)[sp].d(T)[sp].d(G)[sp].d(G)[sp].d(C)[sp].d(A)[sp].[cEt](C)[sp].[moe](T)[sp].[cEt](A)[sp].[moe](G)}$$$$V2.0 | – | target mRNA inhibition (HBV; HepG2, 0.07 µM): 75% and 79% |
| RNA1{[moe](A)[sp].[moe](C)[sp].[moe](C)[sp].d(A)[sp].d(A)[sp].d(T)[sp].d(T)[sp].d(T)[sp].d(A)[sp].d(T)[sp].d(G)[sp].d(C)[sp].d(C)[sp].[cEt](T)[sp].[cEt](A)[sp].[cEt](C)}$$$$V2.0 | – | target mRNA inhibition (HBV; HepG2, 0.07 µM): 24% and 28% |
| RNA1{[moe](A)[sp].[moe](G)[sp].[moe](T)[sp].d(C)[sp].d(C)[sp].d(A)[sp].d(C)[sp].d(C)[sp].d(A)[sp].d(C)[sp].d(G)[sp].d(A)[sp].d(G)[sp].[cEt](T)[sp].[cEt](C)[sp].[cEt](T)}$$$$V2.0 | – | target mRNA inhibition (HBV; HepG2, 0.07 µM): 35% and 29% |
| RNA1{[moe](C)[sp].[moe](G)[sp].[moe](G)[sp].[moe](G)[sp].[moe](C)[sp].d(A)[sp].d(A)[sp].d(C)[sp].d(A)[sp].d(T)[sp].d(A)[sp].d(C)[sp].d(C)[sp].d(T)[sp].[moe](T)[sp].[moe](G)}$$$$V2.0 | – | target mRNA inhibition (HBV; HepG2, 0.07 µM): 54% and 53% |
| RNA1{[moe](A)[sp].[cEt](A)[sp].[cEt](A)[sp].d(T)[sp].d(G)[sp].d(G)[sp].d(C)[sp].d(A)[sp].d(C)[sp].d(T)[sp].d(A)[sp].d(G)[sp].d(T)[sp].[cEt](A)[sp].[cEt](A)[sp].[moe](A)}$$$$V2.0 | – | target mRNA inhibition (HBV; HepG2, 0.07 µM): 51% |
| RNA1{[moe](T)[sp].[cEt](T)[sp].[cEt](A)[sp].d(T)[sp].d(G)[sp].d(C)[sp].d(C)[sp].d(T)[sp].d(A)[sp].d(C)[sp].d(A)[sp].d(G)[sp].d(C)[sp].[cEt](C)[sp].[cEt](T)[sp].[moe](C)}$$$$V2.0 | – | target mRNA inhibition (HBV; HepG2, 0.07 µM): 48% and 23% |
| RNA1{[moe](G)[sp].[moe](C)[sp].[moe](A)[sp].d(G)[sp].d(A)[sp].d(G)[sp].d(G)[sp].d(T)[sp].d(G)[sp].d(A)[sp].d(A)[sp].d(G)[sp].[moe](C)[sp].[moe](G)[sp].[moe](A)[sp].[moe](A)[sp].[moe](G)}$$$$V2.0 | – | target mRNA inhibition (HBV; HepG2, 0.07 µM): 75% and 66% |
| GGTCTGGCCCTTTTGG (sugars kkkddddddddkdkdk, PS) | 0% | – |
| AGGAAGTGAGTCTCAA (sugars kkddddddddkekekk, PS) | 20% | – |
| GGTTCTTGGACTCTCA (sugars kkkdddddddddkeke, PS) | 48% and 67% | target mRNA inhibition (IRF5; KARPAS-229, 0.44444 µM): 41%; target mRNA inhibition (IRF5; KARPAS-229, 1.33333 µM): 56%; target mRNA inhibition (IRF5; KARPAS-229, 12 µM): 81% |
| GGTGTATTTCCCTGTC (sugars kekdddddddddeekk, PS) | 5% | – |
| GTCTAGTGTCATGGAA (sugars kkddddddddkekekk, PS) | 9% | – |
| CACTGACACAGGCGGA (sugars kkddddddddddkeke, PS) | 0% | – |
| AGTGAGTCTCAAACCA (sugars k3 d10 k3, PS) | 0% | – |
| AGCTTGGTCTTGACCT (sugars kkdddddddddkekek, PS) | 8% | – |
| AGGTTCTTGGACTCTC (sugars kkddddddddddkeke, PS) | 41% | – |
| CCCAATGCAACATCCA (sugars kkddddddddkekekk, PS) | 0% | – |

| Substance | target mRNA inhibition (IRF5; KARPAS-229, 4 µM) | further results |
| --- | --- | --- |
| GAGTCTCAAACCAGGG (sugars kddddddddddkekek, PS) | 0% | – |
| CCAATTTTGCATTCCA (sugars kkddddddddddkeke, PS) | 75% and 57% | target mRNA inhibition (IRF5; KARPAS-229, 0.44444 µM): 47%; target mRNA inhibition (IRF5; KARPAS-229, 1.33333 µM): 66%; target mRNA inhibition (IRF5; KARPAS-229, 12 µM): 82% |
| GCACTGACACAGGCGG (sugars kdddddddddkekeke, PS) | 0% | – |
| TGCACTGACACAGGCG (sugars k2 d9 e3 k2, PS) | 18% | – |
| ATGGTGTTATCTCCGT (sugars kkddddddddkekekk, PS) | 0% | – |
| TCCAATTTTGCATTCC (sugars kkddddddddkekekk, PS) | 15% | – |
| CACATCTCCACATCAG (sugars kkkdddddddddkeke, PS) | 38% | – |
| CAGGTTCTTGGACTCT (sugars k3 d10 k3, PS) | 0% | – |
| TTGTCTAGTGTCATGG (sugars kddddddddddkekek, PS) | 44% | – |
| TATCTCCGTCCTGGCT (sugars kdddddddddkekeke, PS) | 0% | – |
| CATTCCATATACACAC (sugars kkkddddddddkdkdk, PS) | 40% | – |
| AGGGCACAGCGCAGGT (sugars k3 d10 k3, PS) | 2% | – |
| GTGTATTTCCCTGTCT (sugars kkddddddddkekekk, PS) | 0% | – |
| ACCATTCTATGCCTTT (sugars kkddddddddddkeke, PS) | 51% | – |
| AATTTTGCATTCCATA (sugars k3 d10 k3, PS) | 41% | – |
| GCTGTCACATCTCCAC (sugars kkkddddddddkdkdk, PS) | 35% | – |
| TGAGTCTCAAACCAGG (sugars k2 d9 e3 k2, PS) | 0% | – |
| TGTCACATCTCCACAT (sugars kdddddddddkekeke, PS) | 0% | – |
| CCAATGCAACATCCAT (sugars kkddddddddddkeke, PS) | 0% | – |
| CTTTCTTGTCTAGTGT (sugars k3 d10 k3, PS) | 48% | – |
| TTTGTGACTGTATTAC (sugars k3 d10 k3, PS) | 50% | – |
| GGTGTATTTCCCTGTC (sugars kddddddddddkekek, PS) | 0% | – |
